Measurements: patent US11666577B2 (National Institute of Biological Sciences, Beijing, priority 2018, dated 2023)

Target: VEGFR2 (Homo sapiens, UniProt P35968)
Test: not given
Settings: cited from earlier work

Sequence of VEGFR2 (P35968 20-1356, species assumed): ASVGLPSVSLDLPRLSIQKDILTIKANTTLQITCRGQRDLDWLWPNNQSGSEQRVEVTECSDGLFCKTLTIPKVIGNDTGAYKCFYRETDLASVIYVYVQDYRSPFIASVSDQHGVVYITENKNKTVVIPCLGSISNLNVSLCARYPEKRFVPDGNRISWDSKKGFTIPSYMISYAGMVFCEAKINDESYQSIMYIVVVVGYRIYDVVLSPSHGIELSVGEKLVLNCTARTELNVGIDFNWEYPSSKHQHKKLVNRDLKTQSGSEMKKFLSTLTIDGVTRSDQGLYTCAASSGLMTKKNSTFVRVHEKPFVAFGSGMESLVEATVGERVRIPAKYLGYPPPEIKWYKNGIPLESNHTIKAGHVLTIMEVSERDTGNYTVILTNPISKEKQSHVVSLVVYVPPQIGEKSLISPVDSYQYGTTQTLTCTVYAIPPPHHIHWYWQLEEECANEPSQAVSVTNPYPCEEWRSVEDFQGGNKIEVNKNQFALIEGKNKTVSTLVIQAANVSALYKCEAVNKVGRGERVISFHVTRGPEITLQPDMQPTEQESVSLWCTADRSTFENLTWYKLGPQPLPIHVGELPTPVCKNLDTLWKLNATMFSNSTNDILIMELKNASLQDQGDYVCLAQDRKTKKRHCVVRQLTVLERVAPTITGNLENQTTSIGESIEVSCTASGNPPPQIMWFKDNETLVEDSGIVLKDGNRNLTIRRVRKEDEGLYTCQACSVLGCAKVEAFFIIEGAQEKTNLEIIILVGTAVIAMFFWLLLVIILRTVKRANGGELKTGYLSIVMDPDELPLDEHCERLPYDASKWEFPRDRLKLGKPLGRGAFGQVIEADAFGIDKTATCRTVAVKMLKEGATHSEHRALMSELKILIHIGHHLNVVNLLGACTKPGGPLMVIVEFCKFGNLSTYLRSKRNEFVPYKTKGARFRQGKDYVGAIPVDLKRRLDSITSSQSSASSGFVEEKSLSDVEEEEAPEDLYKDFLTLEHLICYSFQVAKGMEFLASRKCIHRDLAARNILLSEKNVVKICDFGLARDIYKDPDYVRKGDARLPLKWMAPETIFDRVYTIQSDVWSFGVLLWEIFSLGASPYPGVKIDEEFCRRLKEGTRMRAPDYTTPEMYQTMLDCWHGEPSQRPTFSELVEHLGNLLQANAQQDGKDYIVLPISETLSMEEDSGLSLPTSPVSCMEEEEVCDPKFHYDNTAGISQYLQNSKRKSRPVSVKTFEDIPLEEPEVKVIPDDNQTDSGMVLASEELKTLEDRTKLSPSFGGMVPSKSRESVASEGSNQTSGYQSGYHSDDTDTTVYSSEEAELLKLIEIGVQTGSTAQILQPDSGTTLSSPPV

Which “off-target activity against other kinases, including VEGFR2” value does the source give for `CN(c1ccc(NC(=O)Nc2ccc(OC(F)(F)F)cc2)cc1)c1ccnc(Nc2cccc(S(N)(=O)=O)c2)n1` [GW806742X] here?
The value was “off-target activity”.

System: pMLKL
Test: Immunofluorescence staining of pMLKL in HT-29 cells
Type: cell-based, human
Settings: monoclonal anti-pMLKL antibody, Experimental-section numbering
Description: This is a crucial step in the translocation of MLKL from the cytoplasm to the cell membrane, where it mediates ion influx and/or causes the disruption of cell structures.^[5] To evaluate the mechanism of this series of compounds on MLKL, we detected the status (state of oligomerization and phosphorylation) of MLKL under TSZ stimulation in the presence of compound 12 or 15. […] Next, we evaluated the effects of MLKL inhibitors on the translocation of MLKL from the cytoplasm to the cell membrane. HT-29 cells were treated with TSZ in the presence of RIPA-56, NSA, compound 12, or compound 15 for 6 h. The proteins from cell lysates were separated and the soluble phase and membrane phase were analyzed separately with anti-MLKL and anti-pMLKL antibodies. […] We also performed immunofluorescence staining in HT-29 cells using a monoclonal anti-pMLKL antibody. After TSZ stimulation, large, bright-green fluorescent dots (pMLKL) were present in the plasma membrane. […] Sun, X. Wang, Trends Biochem. Sci 2014, 39, 587-593; bM. Pasparakis, P. Vandenabeele, Nature 2015, 517, 311-320. • 2. N. Holler, R. Zaru, O. Micheau, M. Thome, A. Attinger, S. Valitutti, J.-L. Bodmer, P. Schneider, B. Seed, J. Tschopp, Nat. Immunol. 2000, 1, 489-495. • 3. aS. He, L. Wang, L. Miao, T. Wang, F. Du, L. Zhao, X. Wang, Cell 2009, 137, 1100-1111; bD.-W. Zhang, J. Shao, J. Lin, N. Zhang, B.-J. Lu, S.-C. Lin, M.-Q. Dong, J. Han, Science 2009, 325, 332-336. • 4. L. Sun, H. et al. Cell 2012, 148, 213-227. • 5. aH. Wang, L. Sun, L. Su, J. Rizo, L. Liu, L.-F. Wang, F.-S. Wang, X. Wang, Mol. Cell 2014, 54, 133-146; bZ. Cai, S. Jitkaew, J. Zhao, H.-C. Chiang, S. Choksi, J. Liu, Y. Ward, L.-g. Wu, Z.-G. Liu, Nat. Cell Biol. 2014, 16, 55-65. • 6. aJ. Wu, et al., Cell Res. 2013, 23, 994-1006; bD. Ofengeim, Y. Ito, A. Najafov, Y. Zhang, B. Shan, J. P. DeWitt, J. Ye, X. Zhang, A. Chang, H. Vakifahmetoglu-Norberg, Cell reports 2015, 10, 1836-1849; cM. Pierdomenico, A. Negroni, L. Stronati, R. Vitali, E. Prete, J. Bertin, P. J. Gough, M. Aloi, S. Cucchiara, Am J. Gastroenterol. 2014, 109, 279-287. • 7. […]

Which “pMLKL immunofluorescence after TSZ stimulation” value (from here on “pMLKL immunofluorescence”) does the source give for `CN(c1ccc(NC(=O)Nc2ccc(OC(F)(F)F)cc2)cc1)c1ccnc(Nc2cccc(S(N)(=O)=O)c2)n1` [GW806742X] here?
Its value is “blocked the phosphorylation of MLKL completely”.

For `COc1nccnc1NS(=O)(=O)c1ccc(NC(=O)/C=C/c2ccc([N+](=O)[O-])s2)cc1` [NSA, necrosulfonamide, reference compound], which “pMLKL immunofluorescence” value is on record?
The value was “small pMLKL dots were dispersed in the cytoplasm”.

Which “pMLKL immunofluorescence” value does the source give for `CCC(C)(C)C(=O)N(O)Cc1ccccc1` [RIPA-56] here?
Its value is “blocked the phosphorylation of MLKL completely”.

Target: RIP3 (Homo sapiens, UniProt Q9Y572)
Test: RIP3 kinase activity enzymatic assay
Type: biochemical
Settings: not given
Method: (§1) To determine whether the direct target of this series of compounds is MLKL, we performed activity based protein profiling (ABPP). Compound 12, an affinity probe, was incubated with MLKL-flag-HT-29 cell lysates for 2 hours, followed by a click reaction to conjugate the probe to a biotin-tag. The biotin-labeled compound-protein complexes were pulled down and analysed via SDS-PAGE.

Sequence of RIP3 (Q9Y572 whole entry): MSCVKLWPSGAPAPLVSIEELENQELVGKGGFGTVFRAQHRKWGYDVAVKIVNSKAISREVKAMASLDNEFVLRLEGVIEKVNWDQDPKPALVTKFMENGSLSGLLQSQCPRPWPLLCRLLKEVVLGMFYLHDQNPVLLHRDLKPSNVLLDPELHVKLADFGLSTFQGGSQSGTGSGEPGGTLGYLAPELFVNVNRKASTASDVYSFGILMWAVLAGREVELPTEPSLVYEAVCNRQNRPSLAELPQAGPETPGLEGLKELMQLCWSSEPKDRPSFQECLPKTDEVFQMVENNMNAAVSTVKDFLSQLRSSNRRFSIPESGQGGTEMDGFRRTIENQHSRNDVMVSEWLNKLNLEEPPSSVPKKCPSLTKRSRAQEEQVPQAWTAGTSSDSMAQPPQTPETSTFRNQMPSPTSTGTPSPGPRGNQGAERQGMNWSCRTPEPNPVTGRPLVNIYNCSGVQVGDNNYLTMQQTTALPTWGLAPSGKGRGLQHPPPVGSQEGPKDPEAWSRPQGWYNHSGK

With `CN(c1ccc(NC(=O)Nc2ccc(OC(F)(F)F)cc2)cc1)c1ccnc(Nc2cccc(S(N)(=O)=O)c2)n1` [GW806742X] as the compound, how does the “off-target activity against RIP3” value read?
Its value is “off-target activities”.

Target: T1, RIP1 (Homo sapiens, UniProt Q13546)
T1 sequence (Q13546 1-671): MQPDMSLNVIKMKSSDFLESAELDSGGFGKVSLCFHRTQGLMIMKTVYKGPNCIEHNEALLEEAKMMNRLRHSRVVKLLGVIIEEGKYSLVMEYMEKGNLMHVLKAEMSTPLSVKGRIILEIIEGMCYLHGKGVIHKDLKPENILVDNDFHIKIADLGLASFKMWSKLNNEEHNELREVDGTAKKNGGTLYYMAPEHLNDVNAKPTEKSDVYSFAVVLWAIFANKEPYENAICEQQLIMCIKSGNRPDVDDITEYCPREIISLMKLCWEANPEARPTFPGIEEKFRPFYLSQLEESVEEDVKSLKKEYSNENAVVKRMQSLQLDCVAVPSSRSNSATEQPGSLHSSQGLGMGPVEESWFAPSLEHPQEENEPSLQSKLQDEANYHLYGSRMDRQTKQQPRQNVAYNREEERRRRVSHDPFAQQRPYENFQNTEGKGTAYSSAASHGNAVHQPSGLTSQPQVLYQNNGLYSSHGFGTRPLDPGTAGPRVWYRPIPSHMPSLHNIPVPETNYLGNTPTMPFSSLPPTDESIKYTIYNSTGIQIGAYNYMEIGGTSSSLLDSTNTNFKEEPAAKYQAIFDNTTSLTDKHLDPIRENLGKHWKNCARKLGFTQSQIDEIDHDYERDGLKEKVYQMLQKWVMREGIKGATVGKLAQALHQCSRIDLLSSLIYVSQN
Test: RIP1 kinase activity enzymatic assay
Type: biochemical
Settings: not given
Method: as §1

With `CN(c1ccc(NC(=O)Nc2ccc(OC(F)(F)F)cc2)cc1)c1ccnc(Nc2cccc(S(N)(=O)=O)c2)n1` [GW806742X] as the compound, how does the “off-target activity against RIP1” value read?
The value was “off-target activities”.

System: HT-29 cells
Test: Necroptosis assay (TNF-α/Smac mimetic/z-VAD, TSZ-induced) in HT-29 cells
Type: cell-based, human
Settings: Experimental-section numbering (compound 1 = Series 1 compound 4); necroptosis induced for 24 h; mean of at least three independent analyses; read-out: EC50 (nM), potency in TSZ-induced necroptosis assays in HT-29 cells
In short: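 HT-29 cells were challenged with 20 ng/ml TNF-α, 100 nM Smac mimetic and 20 mM z-VAD while compound was added at the same time (library screen at 10 mM). After 24 h, viability was read as ATP luminescence (CellTiter-Glo) and normalized to DMSO-treated cells; values are means ± SD of duplicates.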

Which EC50 does the source give for `COc1nccnc1NS(=O)(=O)c1ccc(NC(=O)/C=C/c2ccc([N+](=O)[O-])s2)cc1` [NSA, necrosulfonamide, reference compound] here?
The EC50 was 447 ± 32 nM.

Same assay, conditions: Homo sapiens, HT-29, 24 h; read-out: EC50 (nM), potency in TSZ-induced necroptosis assays in HT-29 cells

Which EC50 does the source give for `CN(c1ccc(NC(=O)Nc2ccc(OC(F)(F)F)cc2)cc1)c1ccnc(Nc2cccc(S(N)(=O)=O)c2)n1` [GW806742X] here?
Its EC50 is 589 ± 12 nM.

Same assay, conditions: Series 1 (Table 1) compounds 147-176; activity extrapolated; read-out: Series 1 compound necroptosis activity (extrapolated)

Which EC50 does the source give for `CN(C)CCS(=O)(=O)c1nc2c(c(=O)n(C)c(=O)n2CC#Cc2cccc(O)c2)n1C` [Compound 152] here?
Its EC50 is 1000 to 1e+06 nM.

Which EC50 does the source give for `Cn1c(=O)c2c(nc(S(=O)(=O)CCOCCO)n2C)n(CC#Cc2cccc(O)c2)c1=O` [Compound 153] here?
Its EC50 is 1000 to 1e+06 nM.

Which EC50 does the source give for `COCCOCCS(=O)(=O)c1nc2c(c(=O)n(C)c(=O)n2CC#Cc2cccc(O)c2)n1C` [Compound 154] here?
The EC50 was 1000 to 1e+06 nM.

With `CCCS(=O)(=O)c1nc2c(c(=O)n(C)c(=O)n2CC#Cc2cccc(O)c2)n1C` [Compound 155] as the compound, how does the EC50 read?
Its EC50 is 1000 to 1e+06 nM.

For `Cn1c(=O)c2c(nc(S(N)(=O)=O)n2C)n(CC#Cc2cccc(O)c2)c1=O` [Compound 156], which EC50 is on record?
The EC50 was 1000 to 1e+06 nM.

With `CNS(=O)(=O)c1nc2c(c(=O)n(C)c(=O)n2CC#Cc2cccc(O)c2)n1C` [Compound 157] as the compound, how does the EC50 read?
The EC50 was 1000 to 1e+06 nM.

For `CN(C)S(=O)(=O)c1nc2c(c(=O)n(C)c(=O)n2CC#Cc2cccc(O)c2)n1C` [Compound 158], which EC50 is on record?
The EC50 was 1000 to 1e+06 nM.

For `C=CC(=O)Nc1cccc(C#CCn2c(=O)n(C)c(=O)c3c2nc(S(=O)(=O)CCO)n3C)c1` [Compound 159], which EC50 is on record?
The EC50 was 1000 to 1e+06 nM.

Which EC50 does the source give for `C=CC(=O)Nc1cccc(C#CCn2c(=O)n(C)c(=O)c3c2nc(S(=O)(=O)CC2CC2)n3C)c1` [Compound 160] here?
Its EC50 is 1000 to 1e+06 nM.

For `CCCC(=O)Nc1cccc(C#CCn2c(=O)n(C)c(=O)c3c2nc(S(=O)(=O)CC2CC2)n3C)c1` [Compound 161], which EC50 is on record?
Its EC50 is 1000 to 1e+06 nM.

For `CCCNc1cccc(C#CCn2c(=O)n(C)c(=O)c3c2nc(S(C)(=O)=O)n3C)c1` [Compound 162], which EC50 is on record?
The EC50 was 1000 to 1e+06 nM.

For `Cn1c(=O)c2c(nc(S(C)(=O)=O)n2C)n(CC#Cc2ccc3cc[nH]c3c2)c1=O` [Compound 163], which EC50 is on record?
Its EC50 is 1000 to 1e+06 nM.

Which EC50 does the source give for `Cn1c(=O)c2c(nc(S(=O)(=O)CCc3ccccc3)n2C)n(CC#Cc2ccc3nc[nH]c3c2)c1=O` [Compound 164] here?
The EC50 was 1000 to 1e+06 nM.

For `Cn1c(=O)c2c(nc(S(C)(=O)=O)n2C)n(CC#Cc2ccc(=O)[nH]c2)c1=O` [Compound 165], which EC50 is on record?
Its EC50 is 1000 to 1e+06 nM.

For `Cn1c(=O)c2c(nc(S(C)(=O)=O)n2C)n(CC#Cc2cccc(NCc3ccccc3)c2)c1=O` [Compound 166], which EC50 is on record?
The EC50 was 1000 to 1e+06 nM.

With `Cn1c(=O)c2c(nc(S(C)(=O)=O)n2C)n(CC#CC2CCCNC2)c1=O` (stereo not drawn) [Compound 167] as the compound, how does the EC50 read?
The EC50 was 1000 to 1e+06 nM.

For `Cn1c(=O)c2c(nc(S(C)(=O)=O)n2C)n(CC#Cc2cc(N)cc(Br)c2)c1=O` [Compound 168], which EC50 is on record?
The EC50 was 1000 to 1e+06 nM.

For `Cn1c(=O)c2c(nc(S(C)(=O)=O)n2C)n(CC#Cc2cccc3[nH]ccc23)c1=O` [Compound 169], which EC50 is on record?
Its EC50 is 1000 to 1e+06 nM.

Which EC50 does the source give for `Cn1c(=O)c2c(nc(S(C)(=O)=O)n2C)n(CC#Cc2ccc3c(c2)NCCC3)c1=O` [Compound 170] here?
The EC50 was 1000 to 1e+06 nM.

With `Cn1c(=O)c2c(nc(S(C)(=O)=O)n2C)n(CC#Cc2ccc3c(c2)NCC3)c1=O` [Compound 171] as the compound, how does the EC50 read?
The EC50 was 1000 to 1e+06 nM.

With `Cn1c(=O)c2c(nc(S(=O)(=O)CC3CC3)n2C)n(Cc2cn(/C=C/CN)nn2)c1=O` [Compound 172] as the compound, how does the EC50 read?
Its EC50 is 1000 to 1e+06 nM.

For `CNC/C=C/c1ccc(Cn2c(=O)n(C)c(=O)c3c2nc(S(=O)(=O)CC2CC2)n3C)s1` [Compound 173], which EC50 is on record?
Its EC50 is 1000 to 1e+06 nM.

With `CNc1cc(C#CCn2c(=O)n(C)c(=O)c3c2nc(S(C)(=O)=O)n3C)ccc1N1CCOCC1` [Compound 174] as the compound, how does the EC50 read?
The EC50 was 1000 to 1e+06 nM.

Which EC50 does the source give for `CNc1cc(C#CCn2c(=O)n(C)c(=O)c3c2nc(S(C)(=O)=O)n3C)ccc1N1CCN(C)CC1` [Compound 175] here?
Its EC50 is 1000 to 1e+06 nM.

Which EC50 does the source give for `CCCS(=O)(=O)c1nc2c(c(=O)n(C)c(=O)n2Cc2ccc(-c3cccc(NCC)c3)s2)n1C` [Compound 176] here?
Its EC50 is 1000 to 1e+06 nM.
